# Measurements as given in patent publication US20240173255A1, “Polymeric Micelle Coated with Chain-Like Poorly Soluble Drug, Preparation Method and Application” (Hangzhou Hanjing Biotechnology Co., Ltd, priority 2021, published 2024).
# Assay: Solubility of series A to E drugs in water and 10% Soluplus solution
# Assay type: physicochemical
# Settings: for Solubility in 10% Soluplus: 10% Soluplus solution
# Text: The solubilities of the poorly soluble chain-like drugs of the series A to E according to the present disclosure in water and a 10% Soluplus solution are shown in Table 2.
SMILES,Solubility in 10% Soluplus [µg/mL],Solubility in water [µg/mL]
O=c1c2cccc(F)c2[se]n1CCCCCCn1[se]c2c(F)cccc2c1=O [CPD9],800,1
COc1ccc2[se]n(CCCCCCCn3[se]c4ccc(OCCCN(C)C)cc4c3=O)c(=O)c2c1 [CPD25],>1000,<10
COc1ccc2[se]n(CCCn3[se]c4ccc(OCCCn5nnnc5C)cc4c3=O)c(=O)c2c1 [CPD26],>1000,<10
COc1ccc2[se]n(CCCCCn3[se]c4ccc(OCCCN(C)C)cc4c3=O)c(=O)c2c1 [CPD23],>1000,<10
COc1ccc2[se]n(CCCCCCn3[se]c4ccc(OCCCn5nnnc5C)cc4c3=O)c(=O)c2c1 [CPD29],>1000,<10
COc1ccc2[se]n(CCCCn3[se]c4ccc(OCCCN=[N+]=[N-])cc4c3=O)c(=O)c2c1 [CPD17],>1000,<10
O=c1c2cccc(F)c2[se]n1CCCCn1[se]c2c(F)cccc2c1=O [CPD7],250,2
O=C(CCCCCn1[se]c2ccccc2c1=O)Oc1ccccc1 [CPD36],>1000,<10
COc1ccc2[se]n(CCCCn3[se]c4ccc(OCCCn5nnnc5C)cc4c3=O)c(=O)c2c1 [CPD27],>1000,<10
COc1ccc2[se]n(CCCCCn3[se]c4ccc(OCCCn5nnnc5C)cc4c3=O)c(=O)c2c1 [CPD28],>1000,<10
O=c1c2cccc(F)c2[se]n1CCCCCCCn1[se]c2c(F)cccc2c1=O [CPD10],600,1
O=C(NCCCCCn1[se]c2ccccc2c1=O)c1ccccc1 [CPD38],>1000,<10
COc1ccc2[se]n(CCCCCn3[se]c4ccc(OCCCN=[N+]=[N-])cc4c3=O)c(=O)c2c1 [CPD18],>1000,<10
O=c1c2ccccc2[se]n1CCCn1[se]c2ccccc2c1=O [CPD1],200,4
COc1ccc2[se]n(CCCCCCn3[se]c4ccc(OCCCN=[N+]=[N-])cc4c3=O)c(=O)c2c1 [CPD19],>1000,<10
O=c1c2cccc(F)c2[se]n1CCCCCn1[se]c2c(F)cccc2c1=O [CPD8],300,1

SMILES,Solubility in 10% Soluplus [µg/mL],Solubility in water [µg/mL]
COc1ccc2[se]n(CCCCCn3[se]c4ccc(O)cc4c3=O)c(=O)c2c1 [CPD13],>1000,10
COc1ccc2[se]n(Cc3cccc(Cn4[se]c5ccc(O)cc5c4=O)c3)c(=O)c2c1 [CPD31],>1000,<10
O=C(CCCCCn1[se]c2ccccc2c1=O)Nc1ccccc1 [CPD37],>1000,<10
O=c1c2ccccc2[se]n1CCCCCn1[se]c2ccccc2c1=O [CPD3],300,1
COc1ccc2[se]n(CCCCCCCn3[se]c4ccc(OCCCn5nnnc5C)cc4c3=O)c(=O)c2c1 [CPD30],>1000,<10
O=c1c2ccccc2[se]n1CCCCCCCn1[se]c2ccccc2c1=O [CPD5],500,1
COc1ccc2[se]n(CCCCCCn3[se]c4ccc(OCCCN(C)C)cc4c3=O)c(=O)c2c1 [CPD24],>1000,<10
COc1ccc2[se]n(Cc3cccc(Cn4[se]c5ccc(OCCCn6nnnc6C)cc5c4=O)c3)c(=O)c2c1 [CPD34],>1000,<10
COc1ccc2[se]n(CCCCCCCn3[se]c4ccc(O)cc4c3=O)c(=O)c2c1 [CPD15],>1000,10
COc1ccc2[se]n(CCCn3[se]c4ccc(O)cc4c3=O)c(=O)c2c1 [CPD11],>1000,15
COc1ccc2[se]n(CCCCCCCn3[se]c4ccc(OCCCN=[N+]=[N-])cc4c3=O)c(=O)c2c1 [CPD20],>1000,<10
O=c1c2ccccc2[se]n1CCCCn1[se]c2ccccc2c1=O [CPD2],200,1
COc1ccc2[se]n(CCCn3[se]c4ccc(OCCCN(C)C)cc4c3=O)c(=O)c2c1 [CPD21],>1000,<10
COc1ccc2[se]n(Cc3cccc(Cn4[se]c5ccc(OCCCN=[N+]=[N-])cc5c4=O)c3)c(=O)c2c1 [CPD32],>1000,<10
COc1ccc2[se]n(Cc3cccc(Cn4[se]c5ccc(OCCCN(C)C)cc5c4=O)c3)c(=O)c2c1 [CPD33],>1000,<10
COc1ccc2[se]n(CCCCn3[se]c4ccc(OCCCN(C)C)cc4c3=O)c(=O)c2c1 [CPD22],>1000,<10
